Experimental data as given in US10981906B2, “Substituted pyrrolopyridine JAK inhibitors and methods of making and using the same” (ACLARIS THERAPEUTICS, INC., priority 2017, dated 2021).
Counter-ions that a name gives are not always drawn. Like-named read-outs stand apart in the source and are kept apart here.

Experiments:
JAK3 (a.a. 781-1124) = JAK3 (a.a. 781-1124) (Homo sapiens (Human), UniProt P52333); experiment: JAK3 enzyme activity assay (SRCtide phosphorylation, Caliper); format: biochemical; conditions: 2.5 nM JAK3, 1 μM SRCtide, 1 uM ATP, 40 minutes; read-out: JAK3 Inhibition IC50
Description: The activity of JAK3 (a.a. 781-1124, ThermoFisher) was quantified by measuring the phosphorylation of SRCtide (FAM-GEEPLYWSFPAKKK-NH2). Kinase reactions were run in a 384-well Greiner plate with 2% final DMSO concentration under the buffer conditions of 20 mM HEPES, pH 7.5, 10 mM MgCl2, 0.01% BSA, and 0.0005% Tween-20. The kinase reaction components were 2.5 nM JAK3, 1 μM SRCtide peptide and 1 uM ATP. Examples were tested in dose-response starting at 2 μM (11 concentrations, 3-fold serial dilution, duplicate reactions). The reactions were incubated at room temperature for 40 minutes, then stopped by adding a 1:1 volume of 30 mM EDTA in 20 mM HEPES, pH 7.5 (15 mM EDTA final). After the reaction was stopped, the phosphorylated and unphosphorylated peptides were separated and quantified using a Caliper LC3000/EZ-Reader system and HTS Well Analyzer Software (Caliper, A PerkinElmer Company, Hopkinton, Mass.). GraFit (Erithacus Software Ltd., Horley, U.K.) was used to calculate inhibitor potency by fitting dose-response data to the 4-parameter logistical IC50 equation.
(§1) Background signal is defined in the absence of enzyme and uninhibited signal is defined in the presence of vehicle (2% DMSO) alone. Compounds were evaluated in an 11 point dose-response ranging from […] to 0.34 nM. IC50 values of compounds are determined using a 4 parameter logistical fit of emission ratio as a function of the concentration of compound.

JAK1 = JAK1 (Homo sapiens (Human), UniProt P23458); experiment: JAK1 enzyme activity assay (Thermo Fisher SelectScreen Z-lyte); format: biochemical; conditions: 1 hour kinase reaction, read-out: JAK1 Inhibition IC50
Description: The inhibitory potency of candidate compounds of JAK1 done at Thermo Fisher Scientific in their Selectscreen using a Z-lyte assay. The 2×JAK1/Tyr 06 mixture is prepared in 50 mM HEPES pH 6.5, 0.01% BRIJ-35, 10 mM MgCl2, 1 mM EGTA, 0.02% NaN3. The final 10 μL of the Kinase Reaction consists of 21.2-91.5 ng JAK1 and 2 μM Tyr 06 in 50 mM HEPES pH 7.0, 0.01% BRIJ-35, 10 mM MgCl2, 1 mM EGTA, 0.01% NaN3. After the 1 hour Kinase Reaction incubation, 5 μL of a 1:128 dilution of Development Reagent is added.
as §1

[1] = tested on: IL-2 stimulated STAT5 phosphorylation on Tyr694 (JAK1/3); experiment: JAK1/3 cellular target modulation: IL-2 stimulated phospho-STAT5 in PBMC; format: cell-based; conditions: IL-2 25 ng/ml, 1 hour compound preincubation, read-out: IL2-STAT5 Inhibition IC50
Source text: (§2) Target modulation was based upon the ability of a compound to inhibit JAK isoform specific phosphorylation of selected substrates. IL-2 stimulated STAT5 phosphorylation on Tyr694 was used to assess JAK1/3 compound selectivity. GM-CSF stimulated STAT5 phosphorylation on Tyr694 was used to assess JAK2 compound selectivity. IFNγ stimulated STAT1 phosphorylation on Tyr701 was used to assess JAK1/2 compound selectivity. For all three assays, human PBMC from frozen stocks were thawed, pelleted, resuspended in complete media (90% RPMI, 10% heat inactivated FBS, 10 mM HEPES, 47 μM 2-ME, pen/strep) and placed in wells of a 96 well V-bottom plate at 200,000 per well in 120 μl complete media. Compounds were added as 15 μl per well of 10× working stock solutions in complete media with 1% DMSO (or medium with 1% DMSO for controls) and placed on a plate shaker in a 37° C. incubator with 5% CO2 for 1 hour with gentle shaking (setting of 3). Stimulation used the addition of soluble cytokines. For the JAK1/3 phospho-STAT5 assay, 15 μl of 10× working stock recombinant human IL-2 was added to a final concentration of 25 ng/ml. For the JAK2 phospho-STAT5 assay, 15 μl of 10× working stock recombinant human GM-CSF was added to a final concentration of 5 ng/ml. For the JAK1/2 phospho-STAT1 assay, 15 μl of 10× working stock of recombinant human IFNγ was added to a final concentration of 10 ng/ml. Plates were then placed back on the plate shaker in the incubator for an additional 5, 5 and 10 minutes respectively upon which the plates were removed from the incubator, sealed with a plate sealer and the cells pelleted at 400×g for 5 minutes. After pelleting, the media was removed by aspiration and the cells were lysed in ELISA specific cell lysis buffer. The levels of phospho-STAT5 were determined using a Phospho (Tyr694)/Total STAT5a,b Whole Cell Lysate kit from Meso Scale Discovery. Levels of phospho-STAT1 were determined using a CST-PathScan Phospho-STAT1 (Tyr701) Sandwich ELISA kit.

[2] = tested on: IFNγ stimulated STAT1 phosphorylation on Tyr701 (JAK1/2); experiment: JAK1/2 cellular target modulation: IFNγ stimulated phospho-STAT1 in PBMC; format: cell-based; conditions: Homo sapiens, PBMC, IFNγ 10 ng/ml, 1 hour compound preincubation, read-out: Infγ-STAT1 IC50
Source text: as §2

Chain of JAK1 (P23458 whole entry): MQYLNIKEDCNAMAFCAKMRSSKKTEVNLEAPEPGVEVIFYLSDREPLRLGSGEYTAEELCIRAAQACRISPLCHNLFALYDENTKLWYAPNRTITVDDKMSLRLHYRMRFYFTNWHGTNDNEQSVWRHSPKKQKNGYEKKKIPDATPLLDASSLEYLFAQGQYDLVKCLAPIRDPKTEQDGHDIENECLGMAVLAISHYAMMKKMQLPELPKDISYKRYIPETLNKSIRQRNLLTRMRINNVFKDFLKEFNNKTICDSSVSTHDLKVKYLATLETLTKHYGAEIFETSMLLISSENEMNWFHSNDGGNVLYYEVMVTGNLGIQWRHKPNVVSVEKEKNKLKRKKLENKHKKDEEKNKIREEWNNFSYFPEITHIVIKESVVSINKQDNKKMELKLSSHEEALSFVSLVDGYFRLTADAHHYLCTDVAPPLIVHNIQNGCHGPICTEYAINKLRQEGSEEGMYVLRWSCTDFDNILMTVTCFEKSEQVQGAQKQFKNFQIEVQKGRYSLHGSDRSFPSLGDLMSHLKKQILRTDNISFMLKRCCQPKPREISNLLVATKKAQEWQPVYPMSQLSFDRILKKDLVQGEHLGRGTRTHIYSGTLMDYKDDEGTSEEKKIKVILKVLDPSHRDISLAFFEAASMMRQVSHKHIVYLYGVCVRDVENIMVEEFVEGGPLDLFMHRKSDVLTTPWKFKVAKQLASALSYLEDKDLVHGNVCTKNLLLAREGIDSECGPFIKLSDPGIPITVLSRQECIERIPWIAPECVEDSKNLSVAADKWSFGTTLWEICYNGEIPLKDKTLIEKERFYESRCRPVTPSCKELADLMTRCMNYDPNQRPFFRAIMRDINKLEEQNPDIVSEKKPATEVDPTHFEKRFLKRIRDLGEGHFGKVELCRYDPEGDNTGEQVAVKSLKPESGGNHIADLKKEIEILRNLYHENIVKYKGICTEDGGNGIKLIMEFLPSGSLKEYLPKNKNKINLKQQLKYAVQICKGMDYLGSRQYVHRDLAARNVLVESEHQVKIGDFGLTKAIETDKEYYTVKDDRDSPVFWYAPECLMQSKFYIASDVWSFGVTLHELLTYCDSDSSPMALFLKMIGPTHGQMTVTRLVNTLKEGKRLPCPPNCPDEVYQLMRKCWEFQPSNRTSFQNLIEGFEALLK
Chain of JAK3 (a.a. 781-1124) (P52333 781-1124): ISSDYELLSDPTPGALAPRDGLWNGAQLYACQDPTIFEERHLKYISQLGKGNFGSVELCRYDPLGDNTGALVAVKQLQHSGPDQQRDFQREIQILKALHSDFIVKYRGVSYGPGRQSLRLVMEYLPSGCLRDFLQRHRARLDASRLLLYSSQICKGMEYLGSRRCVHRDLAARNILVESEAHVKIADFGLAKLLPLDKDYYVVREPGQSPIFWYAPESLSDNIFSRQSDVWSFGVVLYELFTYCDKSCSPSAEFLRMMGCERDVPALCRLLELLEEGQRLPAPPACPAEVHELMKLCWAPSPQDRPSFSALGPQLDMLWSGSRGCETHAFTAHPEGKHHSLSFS

Compound | IC50 (JAK3 (a.a. 781-1124)) | IC50 (JAK1) | IC50 ([1]; Homo sapiens, PBMC) | IC50 [2] | IC50 ([1]; human PBMC)
CCOC(=O)c1cnc2[nH]ccc2c1N(C)[C@H]1CC[C@H](OC(=O)CC#N)C1 (single isomer, unassigned) [Example 69, (trans)-ethyl 4-((3-(2-cyanoacetoxy)cyclopentyl)(methyl)amino)-1H-pyrrolo[2,3-b]pyridine-5-carboxylate] | 0.1 to 1 µM | 0.1 to 1 µM | – | – | > 1 µM
CCOC(=O)c1cnc2[nH]ccc2c1N(C)[C@H]1CC[C@H](O)C1 (single isomer, unassigned) [Example 68A, (trans)-Ethyl 4-((-3-hydroxycyclopentyl)(methyl)amino)-1H-pyrrolo[2,3-b] pyridine-5-carboxylate] | 0.1 to 1 µM | 0.1 to 1 µM | > 1 µM | – | –
CCOC(=O)c1cnc2[nH]ccc2c1N(C)[C@H]1CC[C@H](CS(=O)(=O)NC)CC1 [Example 94, ethyl 4-(methyl((1r,4r)-4-((N-methylsulfamoyl)methyl)cyclohexyl)amino)-1H-pyrrolo[2,3-b]pyridine-5-carboxylate] | 0.01 to 0.1 µM | – | – | – | –
CCOC(=O)c1cnc2[nH]ccc2c1N(C)[C@@H]1CC[C@@H](O)C1 (single isomer, unassigned) [Example 68B, (trans)-Ethyl 4-((-3-hydroxycyclopentyl)(methyl)amino)-1H-pyrrolo[2,3-b]pyridine-5-carboxylate] | 0.01 to 0.1 µM | 0.1 to 1 µM | > 1 µM | – | –

Now from value to molecule, other results behind:

IC50 (JAK3 (a.a. 781-1124)) | IC50 (JAK1) | IC50 ([1]; Homo sapiens, PBMC) | IC50 [2] | Compound | IC50 ([1]; human PBMC)
≤ 0.01 µM | ≤ 0.01 µM | ≤ 0.1 µM | ≤ 0.1 µM | CCOC(=O)c1cnc2[nH]ccc2c1N[C@@H]1CCCN(C(=O)CC#N)C1 [Example 117, ethyl (R)-4-((1-(2-cyanoacetyl)piperidin-3-yl)amino)-1H-pyrrolo[2,3-b]pyridine-5-carboxylate] | –
0.1 to 1 µM | 0.1 to 1 µM | > 1 µM | – | C[C@@H]1CCN(C(=O)CC#N)C[C@@H]1Nc1c(C(=O)OC(C)(C)C)cnc2[nH]ccc12 [Example 119, tert-butyl 4-(((3R,4R)-1-(2-cyanoacetyl)-4-methylpiperidin-3-yl)amino)-1H-pyrrolo[2,3-b]pyridine-5-carboxylate] | –
0.1 to 1 µM | 0.1 to 1 µM | > 1 µM | – | C[C@@H]1CCN(C(=O)CC#N)C[C@@H]1Nc1c(C(=O)O)cnc2[nH]ccc12 [Example 120, 4-(((3R,4R)-1-(2-cyanoacetyl)-4-methylpiperidin-3-yl)amino)-1H-pyrrolo[2,3-b]pyridine-5-carboxylic acid trifluoroacetic acid Salt] | –
0.1 to 1 µM | 0.1 to 1 µM | > 1 µM | – | N#CCC(=O)N1CCC[C@@H](Nc2c(C(=O)O)cnc3[nH]ccc23)C1 [Example 121, (R)-4-((1-(2-cyanoacetyl)piperidin-3-yl)amino)-1H-pyrrolo[2,3-b]pyridine-5-carboxylic acid trifluoroacetic acid Salt] | –
0.01 to 0.1 µM | – | 0.1 to 1 µM | – | CCOC(=O)c1cnc2[nH]ccc2c1N[C@@H]1CCCN(C(=O)[C@@H]2CC2(F)F)C1 [Example 156, ethyl 4-(((R)-1-((S)-2,2-difluorocyclopropane-1-carbonyl)piperidin-3-yl)amino)-1H-pyrrolo[2,3-b]pyridine-5-carboxylate] | –
